# The source made the active and inactive calls. The calls are words filed in the database; no cut-off is given here.
# Tests used:
# [1] = molecular target: T1, Matrix metalloproteinase-14 (Homo sapiens, UniProt P50281); assay: Inhibition of MMP14
# [2] = molecular target: T2, Interstitial collagenase (Homo sapiens, UniProt P03956)
# T2 sequence (P03956 whole entry): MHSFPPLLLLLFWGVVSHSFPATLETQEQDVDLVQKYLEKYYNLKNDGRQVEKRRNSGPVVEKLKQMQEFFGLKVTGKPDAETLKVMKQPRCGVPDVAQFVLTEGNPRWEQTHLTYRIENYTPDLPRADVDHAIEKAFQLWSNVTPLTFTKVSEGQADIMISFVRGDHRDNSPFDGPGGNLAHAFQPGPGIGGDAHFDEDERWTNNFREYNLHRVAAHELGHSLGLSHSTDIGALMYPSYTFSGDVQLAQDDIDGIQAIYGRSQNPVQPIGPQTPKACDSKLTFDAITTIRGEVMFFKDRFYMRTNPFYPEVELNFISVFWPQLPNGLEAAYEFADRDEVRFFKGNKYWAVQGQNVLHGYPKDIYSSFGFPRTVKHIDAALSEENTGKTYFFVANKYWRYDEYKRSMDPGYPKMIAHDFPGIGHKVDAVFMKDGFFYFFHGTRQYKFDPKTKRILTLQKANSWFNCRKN
# [3] = molecular target: T3, Neutrophil collagenase (Homo sapiens, UniProt P22894); assay: Inhibition of MMP8
# Target sequence in this assay (P22894 whole entry): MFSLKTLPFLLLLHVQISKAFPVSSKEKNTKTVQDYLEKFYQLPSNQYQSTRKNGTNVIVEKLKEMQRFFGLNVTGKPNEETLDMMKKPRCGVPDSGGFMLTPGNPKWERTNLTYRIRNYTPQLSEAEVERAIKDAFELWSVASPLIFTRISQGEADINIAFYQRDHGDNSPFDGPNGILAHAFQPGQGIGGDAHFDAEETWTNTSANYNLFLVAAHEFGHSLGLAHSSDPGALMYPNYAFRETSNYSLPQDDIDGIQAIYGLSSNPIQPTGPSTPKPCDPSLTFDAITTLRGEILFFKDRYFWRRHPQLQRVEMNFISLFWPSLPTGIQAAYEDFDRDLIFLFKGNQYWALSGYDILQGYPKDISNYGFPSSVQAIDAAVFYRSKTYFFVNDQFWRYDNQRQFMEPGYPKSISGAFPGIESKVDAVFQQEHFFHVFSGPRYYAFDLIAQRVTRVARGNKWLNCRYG
# [4] = Selectivity for TACE over MMP1
# [5] = Selectivity for TACE over MMP2
# [6] = Selectivity for TACE over ADAM10
# [7] = Selectivity for TACE over MMP14
# [8] = Selectivity for TACE over MMP3
# [9] = Selectivity for TACE over MMP7
# [10] = Selectivity for TACE over BMP1
# [11] = molecular target: T4, 72 kDa type IV collagenase (Homo sapiens, UniProt P08253); assay: Inhibition of MMP2 up to 100 uM
# Target sequence in this assay (P08253 110-660 limits assumed): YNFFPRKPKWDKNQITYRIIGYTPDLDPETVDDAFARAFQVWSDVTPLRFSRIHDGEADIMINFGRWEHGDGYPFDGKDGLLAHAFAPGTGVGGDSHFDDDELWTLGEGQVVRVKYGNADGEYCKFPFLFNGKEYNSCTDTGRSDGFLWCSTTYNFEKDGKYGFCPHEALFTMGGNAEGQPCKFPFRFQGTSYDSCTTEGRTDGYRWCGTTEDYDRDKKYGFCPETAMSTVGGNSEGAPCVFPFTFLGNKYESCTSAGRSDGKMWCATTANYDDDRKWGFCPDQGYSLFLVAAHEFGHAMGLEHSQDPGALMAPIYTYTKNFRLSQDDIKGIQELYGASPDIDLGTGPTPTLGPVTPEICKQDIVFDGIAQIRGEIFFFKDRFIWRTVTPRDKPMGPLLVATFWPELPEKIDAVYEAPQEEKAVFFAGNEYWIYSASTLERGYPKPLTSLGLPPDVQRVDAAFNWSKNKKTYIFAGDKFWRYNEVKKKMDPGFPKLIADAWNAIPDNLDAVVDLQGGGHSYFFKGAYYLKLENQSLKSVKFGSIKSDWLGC
# [12] = molecular target: T3, Neutrophil collagenase; assay: Inhibition of MMP8 up to 100 uM
# [13] = molecular target: T5, Stromelysin-1 (Homo sapiens, UniProt P08254); assay: Inhibition of MMP3 up to 100 uM
# Target sequence in this assay (P08254 100-477 limits assumed): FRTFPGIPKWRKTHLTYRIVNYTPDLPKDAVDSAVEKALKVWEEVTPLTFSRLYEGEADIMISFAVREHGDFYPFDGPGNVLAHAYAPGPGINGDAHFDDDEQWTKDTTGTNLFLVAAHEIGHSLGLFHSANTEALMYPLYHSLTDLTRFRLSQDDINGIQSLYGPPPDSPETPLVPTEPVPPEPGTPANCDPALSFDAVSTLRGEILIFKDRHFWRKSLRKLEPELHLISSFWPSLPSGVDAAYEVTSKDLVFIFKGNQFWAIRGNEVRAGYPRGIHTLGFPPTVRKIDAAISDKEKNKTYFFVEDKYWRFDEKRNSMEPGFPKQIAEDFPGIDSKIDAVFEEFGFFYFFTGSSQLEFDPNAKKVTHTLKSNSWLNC
# [14] = molecular target: T6, Macrophage metalloelastase (Homo sapiens, UniProt P39900); assay: Inhibition of MMP12 up to 100 uM
# Target sequence in this assay (P39900 106-470 limits assumed): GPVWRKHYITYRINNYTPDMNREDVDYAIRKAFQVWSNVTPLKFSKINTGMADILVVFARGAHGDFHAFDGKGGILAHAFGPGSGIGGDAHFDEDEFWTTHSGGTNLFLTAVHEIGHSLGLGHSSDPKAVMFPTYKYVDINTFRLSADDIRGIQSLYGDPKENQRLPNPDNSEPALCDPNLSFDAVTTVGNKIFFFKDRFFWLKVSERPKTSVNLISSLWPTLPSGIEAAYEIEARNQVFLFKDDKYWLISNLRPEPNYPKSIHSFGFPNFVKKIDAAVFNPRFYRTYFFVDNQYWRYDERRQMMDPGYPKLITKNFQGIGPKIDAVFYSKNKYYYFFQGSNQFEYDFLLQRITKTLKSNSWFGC
# [15] = molecular target: T7, Interstitial collagenase (Homo sapiens) (UniProt P03956); assay: Inhibition of MMP1 at 100 uM
# T7 sequence (whole entry): T2 sequence (P03956 whole entry)
# [16] = molecular target: T8, Matrix metalloproteinase-9 (Homo sapiens, UniProt P14780); assay: Inhibition of MMP9 up to 100 uM
# [17] = molecular target: T1, Matrix metalloproteinase-14; assay: Inhibition of MMP14 up to 100 uM
# [18] = molecular target: T9, Matrix metalloproteinase-17 (Homo sapiens) (UniProt Q9ULZ9); assay: Inhibition of MMP17 up to 100 uM
# T9 sequence (whole entry): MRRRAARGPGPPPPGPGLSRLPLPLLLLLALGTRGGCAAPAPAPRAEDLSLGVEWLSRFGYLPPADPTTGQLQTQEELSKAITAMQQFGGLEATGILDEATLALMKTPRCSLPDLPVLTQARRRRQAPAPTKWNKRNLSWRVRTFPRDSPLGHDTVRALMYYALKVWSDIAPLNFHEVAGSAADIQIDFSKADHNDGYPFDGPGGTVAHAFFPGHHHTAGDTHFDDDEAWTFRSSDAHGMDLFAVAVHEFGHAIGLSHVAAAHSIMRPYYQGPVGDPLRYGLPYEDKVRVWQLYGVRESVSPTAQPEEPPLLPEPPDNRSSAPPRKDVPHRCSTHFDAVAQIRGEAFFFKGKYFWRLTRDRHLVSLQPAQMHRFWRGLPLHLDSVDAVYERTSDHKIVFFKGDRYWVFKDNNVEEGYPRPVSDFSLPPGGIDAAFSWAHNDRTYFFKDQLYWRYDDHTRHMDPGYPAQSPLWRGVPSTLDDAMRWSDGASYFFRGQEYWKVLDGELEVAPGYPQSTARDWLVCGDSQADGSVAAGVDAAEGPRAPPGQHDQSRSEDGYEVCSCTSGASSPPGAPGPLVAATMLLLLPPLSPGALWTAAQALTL
# [19] = molecular target: T10, Matrilysin (Homo sapiens) (UniProt P09237); assay: Inhibition of MMP7 up to 100 uM
# T10 sequence (whole entry): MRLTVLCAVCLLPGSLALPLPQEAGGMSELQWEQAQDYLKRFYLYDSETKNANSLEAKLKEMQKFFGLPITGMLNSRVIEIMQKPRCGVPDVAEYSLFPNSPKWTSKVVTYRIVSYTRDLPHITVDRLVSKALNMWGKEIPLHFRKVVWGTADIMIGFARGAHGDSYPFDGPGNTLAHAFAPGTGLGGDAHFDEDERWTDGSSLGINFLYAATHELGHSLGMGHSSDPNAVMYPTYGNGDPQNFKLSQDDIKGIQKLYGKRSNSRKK
# [20] = molecular target: T5, Stromelysin-1
# Target sequence in this assay (P08254 whole entry): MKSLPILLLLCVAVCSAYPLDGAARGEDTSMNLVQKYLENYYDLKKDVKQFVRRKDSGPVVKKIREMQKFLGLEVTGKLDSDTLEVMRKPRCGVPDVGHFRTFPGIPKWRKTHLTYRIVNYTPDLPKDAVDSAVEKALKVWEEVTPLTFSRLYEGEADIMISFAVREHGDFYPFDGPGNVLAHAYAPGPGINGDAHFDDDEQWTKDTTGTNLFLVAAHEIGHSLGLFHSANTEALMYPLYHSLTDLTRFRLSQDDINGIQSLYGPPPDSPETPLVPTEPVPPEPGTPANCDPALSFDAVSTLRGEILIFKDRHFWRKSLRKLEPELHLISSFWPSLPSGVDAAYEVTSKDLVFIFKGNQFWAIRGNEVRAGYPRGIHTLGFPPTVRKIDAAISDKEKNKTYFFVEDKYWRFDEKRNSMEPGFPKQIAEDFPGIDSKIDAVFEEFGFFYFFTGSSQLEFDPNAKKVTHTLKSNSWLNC
# [21] = molecular target: T4, 72 kDa type IV collagenase
# Target sequence in this assay (P08253 whole entry): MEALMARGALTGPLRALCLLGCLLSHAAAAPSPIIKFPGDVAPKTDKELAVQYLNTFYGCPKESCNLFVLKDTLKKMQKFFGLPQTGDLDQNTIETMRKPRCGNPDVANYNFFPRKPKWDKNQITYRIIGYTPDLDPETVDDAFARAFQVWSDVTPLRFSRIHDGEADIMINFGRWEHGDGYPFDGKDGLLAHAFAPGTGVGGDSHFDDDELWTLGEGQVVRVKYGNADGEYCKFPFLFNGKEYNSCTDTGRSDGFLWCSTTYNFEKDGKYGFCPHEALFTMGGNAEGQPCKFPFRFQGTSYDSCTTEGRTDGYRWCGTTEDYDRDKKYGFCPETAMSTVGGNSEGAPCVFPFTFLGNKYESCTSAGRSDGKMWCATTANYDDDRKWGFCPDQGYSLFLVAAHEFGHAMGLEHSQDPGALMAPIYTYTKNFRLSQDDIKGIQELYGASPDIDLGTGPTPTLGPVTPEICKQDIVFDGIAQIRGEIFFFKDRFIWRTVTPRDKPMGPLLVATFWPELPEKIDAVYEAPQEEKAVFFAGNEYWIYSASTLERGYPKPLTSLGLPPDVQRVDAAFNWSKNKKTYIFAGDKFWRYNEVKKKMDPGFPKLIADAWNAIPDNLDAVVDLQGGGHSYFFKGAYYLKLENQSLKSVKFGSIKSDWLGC
# [22] = molecular target: Disintegrin and metalloproteinase domain-containing protein 17 (Sus scrofa, UniProt O77636); assay: Inhibition of pig TACE
# [23] = molecular target: T8, Matrix metalloproteinase-9; assay: Inhibition of MMP9
# [24] = molecular target: Disintegrin and metalloproteinase domain-containing protein 17 (Homo sapiens, UniProt P78536); assay: Inhibition of TACE
# [25] = molecular target: Collagenase 3 (Homo sapiens, UniProt P45452); assay: Inhibition of MMP13
# [26] = molecular target: Stromelysin-3 (Homo sapiens, UniProt P24347); assay: Inhibition of MMP11
# [27] = molecular target: T11, Disintegrin and metalloproteinase domain-containing protein 10 (Homo sapiens, UniProt O14672); assay: Inhibition of ADAM10
# T11 sequence (O14672 whole entry): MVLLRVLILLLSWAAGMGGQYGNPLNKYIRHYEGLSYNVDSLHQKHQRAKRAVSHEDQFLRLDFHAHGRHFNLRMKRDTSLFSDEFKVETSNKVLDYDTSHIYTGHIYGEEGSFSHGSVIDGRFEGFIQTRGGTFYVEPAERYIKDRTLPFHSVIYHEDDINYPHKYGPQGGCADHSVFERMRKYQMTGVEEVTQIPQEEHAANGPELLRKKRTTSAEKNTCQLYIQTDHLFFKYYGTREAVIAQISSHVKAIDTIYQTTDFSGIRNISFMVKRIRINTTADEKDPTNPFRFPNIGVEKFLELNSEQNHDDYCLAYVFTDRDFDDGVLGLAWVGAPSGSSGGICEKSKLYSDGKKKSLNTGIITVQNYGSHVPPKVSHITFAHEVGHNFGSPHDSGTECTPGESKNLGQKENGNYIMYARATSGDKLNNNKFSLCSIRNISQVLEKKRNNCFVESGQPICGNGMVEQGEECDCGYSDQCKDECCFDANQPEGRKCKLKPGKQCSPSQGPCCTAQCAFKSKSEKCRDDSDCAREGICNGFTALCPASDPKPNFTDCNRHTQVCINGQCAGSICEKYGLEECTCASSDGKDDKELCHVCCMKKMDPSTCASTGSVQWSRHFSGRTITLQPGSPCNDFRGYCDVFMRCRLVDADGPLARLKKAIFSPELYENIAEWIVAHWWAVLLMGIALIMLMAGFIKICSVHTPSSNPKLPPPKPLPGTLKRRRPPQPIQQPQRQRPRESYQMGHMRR
# [28] = molecular target: T6, Macrophage metalloelastase; assay: Inhibition of MMP12
# [29] = Inhibition of aggrecanase at 1 uM
# T8 sequence (P14780 whole entry): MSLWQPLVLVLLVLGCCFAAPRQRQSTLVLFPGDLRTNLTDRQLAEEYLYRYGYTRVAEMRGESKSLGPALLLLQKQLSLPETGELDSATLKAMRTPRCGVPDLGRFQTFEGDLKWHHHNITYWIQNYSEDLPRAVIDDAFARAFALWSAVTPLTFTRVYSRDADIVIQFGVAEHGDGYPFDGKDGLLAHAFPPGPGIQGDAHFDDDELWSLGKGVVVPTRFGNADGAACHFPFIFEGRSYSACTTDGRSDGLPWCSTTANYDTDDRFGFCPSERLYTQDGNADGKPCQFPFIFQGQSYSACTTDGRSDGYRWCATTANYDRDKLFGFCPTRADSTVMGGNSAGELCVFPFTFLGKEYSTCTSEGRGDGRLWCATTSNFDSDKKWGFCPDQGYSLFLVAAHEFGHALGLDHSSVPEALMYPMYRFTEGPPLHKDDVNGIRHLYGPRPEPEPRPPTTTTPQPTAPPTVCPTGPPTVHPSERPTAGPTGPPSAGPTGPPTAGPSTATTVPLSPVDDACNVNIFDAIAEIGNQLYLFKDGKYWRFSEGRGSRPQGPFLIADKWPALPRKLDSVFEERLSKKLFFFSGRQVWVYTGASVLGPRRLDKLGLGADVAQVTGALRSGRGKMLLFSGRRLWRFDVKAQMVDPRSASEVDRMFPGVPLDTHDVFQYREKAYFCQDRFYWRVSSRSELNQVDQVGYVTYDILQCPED
# Sequence of Disintegrin and metalloproteinase domain-containing protein 17 (Homo sapiens, UniProt P78536) (P78536 whole entry, the tested form may be a part): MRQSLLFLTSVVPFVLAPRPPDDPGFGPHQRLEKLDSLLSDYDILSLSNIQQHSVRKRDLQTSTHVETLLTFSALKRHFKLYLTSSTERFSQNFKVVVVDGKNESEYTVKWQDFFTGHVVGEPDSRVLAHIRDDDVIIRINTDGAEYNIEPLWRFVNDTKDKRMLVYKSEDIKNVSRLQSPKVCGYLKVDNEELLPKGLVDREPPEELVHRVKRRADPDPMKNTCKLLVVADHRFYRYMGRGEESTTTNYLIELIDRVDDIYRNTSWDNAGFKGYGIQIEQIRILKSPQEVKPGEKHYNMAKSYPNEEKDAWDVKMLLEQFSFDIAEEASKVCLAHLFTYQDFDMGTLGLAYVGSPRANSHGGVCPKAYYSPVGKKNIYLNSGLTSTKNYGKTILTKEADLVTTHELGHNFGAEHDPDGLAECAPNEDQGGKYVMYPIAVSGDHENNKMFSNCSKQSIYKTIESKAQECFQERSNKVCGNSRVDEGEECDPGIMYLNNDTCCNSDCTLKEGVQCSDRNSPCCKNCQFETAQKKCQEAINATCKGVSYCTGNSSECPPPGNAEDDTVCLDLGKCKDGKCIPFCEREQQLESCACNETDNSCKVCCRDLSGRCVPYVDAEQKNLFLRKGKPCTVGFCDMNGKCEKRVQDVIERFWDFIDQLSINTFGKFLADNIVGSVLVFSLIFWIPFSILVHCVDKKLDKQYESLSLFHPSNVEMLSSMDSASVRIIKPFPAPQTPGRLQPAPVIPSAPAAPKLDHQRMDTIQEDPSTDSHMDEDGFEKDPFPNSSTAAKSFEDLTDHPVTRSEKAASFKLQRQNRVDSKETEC
# Sequence of Stromelysin-3 (P24347 whole entry, the tested form may be a part): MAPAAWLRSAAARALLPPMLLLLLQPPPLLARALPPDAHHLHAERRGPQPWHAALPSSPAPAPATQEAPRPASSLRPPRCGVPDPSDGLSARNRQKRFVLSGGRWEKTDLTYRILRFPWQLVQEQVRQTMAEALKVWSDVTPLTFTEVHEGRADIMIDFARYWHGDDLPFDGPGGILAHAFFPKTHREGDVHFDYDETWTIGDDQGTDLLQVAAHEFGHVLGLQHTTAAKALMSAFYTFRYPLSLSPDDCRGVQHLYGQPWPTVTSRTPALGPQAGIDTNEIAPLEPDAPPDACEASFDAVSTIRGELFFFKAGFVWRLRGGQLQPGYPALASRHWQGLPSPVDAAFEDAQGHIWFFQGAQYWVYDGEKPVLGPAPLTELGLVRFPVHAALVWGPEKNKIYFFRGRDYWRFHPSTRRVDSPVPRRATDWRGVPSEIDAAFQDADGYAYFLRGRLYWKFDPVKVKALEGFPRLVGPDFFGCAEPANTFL
compound,measurement,setting,value
Cc1cc(COc2ccc(S(=O)(=O)CC(C=C3CCN(CC(C)C)CC3)N(O)C=O)cc2)c2ccccc2n1 (centres undefined),IC50,[1],> 100 µM
same,IC50,[2],> 100 µM
same,IC50,[3],> 100000 nM
COC(=O)[C@@]1(Cc2ccc(OCc3cc(C)nc4ccccc34)cc2)C[C@@H]1C(=O)NO,fold change (FC),[4],> 12500
same,fold change (FC),[5],1100
same,fold change (FC),[6],> 7000
same,fold change (FC),[7],1800
same,fold change (FC),[8],100
same,fold change (FC),[9],200
same,fold change (FC),[10],2200
O=C(OCc1ccccc1)c1cn2c(=O)n(Cc3ccccc3)c(=O)cc2s1,Activity,[11],inactive
same,Activity,[12],inactive
same,Activity,[13],inactive
same,Activity,[14],inactive
same,Activity,[15],inactive
same,Activity,[16],inactive
same,Activity,[17],inactive
same,Activity,[18],inactive
same,Activity,[19],inactive
CCCN1C(=O)[C@H](CS)NC(=O)[C@@H]1Cc1ccc([N+](=O)[O-])cc1,IC50,[20],> 20000 nM
Cc1cc(=O)c(O)c(C(=O)NCc2ccc(-c3ccc(-c4ccccc4)cc3)cc2)o1,IC50,[2],> 50 µM
same,IC50,[21],> 50 µM
Cc1cc(COc2ccc(NC(=O)[C@H]3[C@H](C(=O)NO)CCCN3C)cc2)c2ccccc2n1,IC50,[22],6.2 nM
same,Ki,[23],> 2130 nM
same,Ki,[2],> 4.95 µM
same,Ki,[21],> 3330 nM
CC#CCOc1ccc(S(=O)(=O)CC2(C(=O)NO)CCN(c3c(C)noc3C)CC2)cc1,IC50,[1],24 µM
same,IC50,[24],2.2 nM
same,IC50,[23],5.5 µM
same,IC50,[2],37.3 µM
same,IC50,[21],0.664 µM
same,IC50,[25],2280 nM
COc1c(Br)ccc2oc(COc3ccc(-c4ccc(S(=O)(=O)N[C@@H](C(=O)O)C(C)C)cc4)cc3)c(C)c12,IC50,[24],> 25000 nM
same,IC50,[2],> 400 µM
same,IC50,[3],42 nM
same,IC50,[20],81 nM
O=C(O)C[C@@H](NC(=O)c1cc(-c2ccc(-c3ccncc3)cc2)cs1)c1ccccc1,IC50,[23],0.98 µM
same,IC50,[21],> 100 µM
same,IC50,[3],1700 nM
same,IC50,[20],390 nM
COc1ccccc1SC[C@H](CP(=O)(O)[C@H](Cc1ccccc1)NC(=O)OCc1ccccc1)C(=O)N[C@@H](Cc1c[nH]c2ccccc12)C(N)=O,Ki,[1],160 nM
same,Ki,[23],35.6 nM
same,Ki,[26],0.23 nM
same,Ki,[21],30 nM
same,Ki,[25],15.7 nM
same,Ki,[3],38.9 nM
Cc1cc(C#N)ccc1N1CCN(S(=O)(=O)CC2(C(=O)NO)CCN(C(=O)O[C@@H]3CCOC3)CC2)CC1,IC50,[23],> 5 µM
same,IC50,[2],> 5 µM
same,IC50,[21],> 5 µM
same,IC50,[27],26 nM
same,IC50,[20],> 5000 nM
COc1ccc(C2=NNC3(S2)C(=O)N(Cc2ccccc2)c2ccc(C)cc23)cc1 (centres undefined),IC50,[25],> 100000 nM
same,IC50,[28],> 22 µM
Cc1cc(COc2ccc(C(=O)NCC3(N4CCN(S(C)(=O)=O)CC4)C(=O)NC(=O)NC3=O)cc2)c2ccccc2n1,inhibition,[29],11%

# Source: ChEMBL document CHEMBL1141723, “Specific targeting of metzincin family members with small-molecule inhibitors: progress toward a multifarious challenge” (Bioorg Med Chem, 2008)
